# Tests used:
# Lung S9 metabolism = format: in vitro ADME, human; details: for Compound Remaining at 60 min (%) / microsomal CLint at 1 µM: human lung S9, 1 μM compound, 1 mg/mL S9 protein; for Sulfate Appearance: human lung S9, qualitative O-sulfate metabolite peak; for microsomal CLint at 1 µM: human lung S9 fraction, pH 7.4, NADPH and PAPS, read-out: Clearance
# Experimental: The time 0, 15, 30, and 60 minute samples were analyzed for parent compound by high resolution LC-MS/MS. Lung S9 fractions from human (lot 1410245) were purchased from XenoTech LLC (Lenexa, Kans.). NADPH (Sigma Aldrich, N1630) and 3-phosphoadenosine 5-phosphosulfate (PAPS) (Sigma Aldrich, A1651) were purchased from Sigma Aldrich (St. Louis, Mo.). Acetonitrile and water were obtained from VWR (Radnor, Pa.) and were of HPLC grade or better. Raloxifene and formic acid was purchased from Sigma Aldrich (St. Louis, Mo.). Lung S9 incubations were performed in a water bath at 37° C. in a 96-well polypropylene plate. […] Louis, Mo.), 3 mM magnesium chloride (Sigma Aldrich, M1028) and in the presence of 100 μM PAPS (Sigma-Aldrich, St. […] Incubation volumes consisted of 400 μL and time points were taken at 0, 15, 30, and 60 minutes by the removal of a 70 μL aliquot and dilution into 140 μL acetonitrile (0% formic acid). All samples were centrifuged at 2250 g for 10 minutes at 5° C. Supernatant […] was taken from the centrifuged samples and diluted into 100 μL HPLC water containing internal standard. The samples were run on a Dionex Ultimate 3000 Auto sampler and analyzed using a Thermo Q-Exactive High Resolution Mass Spectrometer (Thermo, Waltham, Mass.) in Full Scan mode in conjunction with an Atlantis T3 column 3 μM-2.1×50 mm (Waters Inc., 186003717). Mobile Phase A consisted of Water+0.2% formic acid and Mobile Phase B consisted of acetonitrile +0.2% formic acid. Peak integration was accomplished using Gubbs GMSU software (Gubbs Inc., Alpharetta, Ga.). For each sample, peak area ratios were calculated by dividing the analyte peak area by the internal standard peak area. For each incubation, the peak area ratios of the analytes in each t0 was set to 100%, and the peak areas ratios from the 60 minute samples were converted to percentages remaining relative to the corresponding t0. Determination of sulfate metabolite formation was made qualitatively by observation of early-eluting peak in the parent ion channel which, based on historical internal data, corresponded to the O-sulfate metabolite of each parent compound.
# JAK2 = JAK2 (Homo sapiens (Human), UniProt O60674); test: Biochemical JAK kinase assay (LanthaScreen), JAK2
# Experimental: (§1) Recombinant GST-tagged JAK enzymes and a GFP-tagged STAT1 peptide substrate were obtained from Life Technologies. Serially diluted compounds were pre-incubated with each of the four JAK enzymes and the substrate in white 384-well microplates (Corning) at ambient temperature for 1 h. ATP was subsequently added to initiate the kinase reactions in 10 μL total volume, with 1% DMSO. […] Kinase reactions were allowed to proceed for 1 hour at ambient temperature before a 10 μL preparation of EDTA (10 mM final concentration) and Tb-anti-pSTAT1 ([…]) antibody (Life Technologies, 2 nM final concentration) in TR-FRET dilution buffer (Life Technologies) was added. The plates were allowed to incubate at ambient temperature for 1 h before being read on the EnVision reader (Perkin Elmer). Emission ratio signals (520 nm/495 nm) were recorded and utilized to calculate the percent inhibition values based on DMSO and background controls. For dose-response analysis, percent inhibition data were plotted vs. compound concentrations, and IC50 values were determined from a 4-parameter robust fit model with the Prism software (GraphPad Software). Results were expressed as pIC50 (negative logarithm of IC50) and subsequently converted to pKi (negative logarithm of dissociation constant, Ki) using the Cheng-Prusoff equation. Test compounds having a lower Ki value or higher pKi value in the four JAK assays show greater inhibition of JAK activity.
# JAK3 = JAK3 (Homo sapiens (Human), UniProt P52333); test: Biochemical JAK kinase assay (LanthaScreen), JAK3
# Experimental: as §1, with “equation.” for “equation. Test compounds having a lower Ki value or higher pKi value in the four JAK assays show greater inhibition of JAK activity.”
# [1] = tested on: IL-2 stimulated pSTAT5 in Tall-1 T cells; test: Inhibition of IL-2 stimulated pSTAT5 in Tall-1 T cells; format: cell-based; details: IL-2 stimulated pSTAT5, Tall-1 human T cell line; read-out: Tall-1 pIC50 (converted)
# Experimental: The potency of test compounds for inhibition of interleukin-2 (IL-2) stimulated STAT5 phosphorylation was measured in the Tall-1 human T cell line (DSMZ) using AlphaLisa. Because IL-2 signals through JAK1/3, this assay provides a measure of JAK1/3 cellular potency.
# Phosphorylated STAT5 was measured via the AlphaLISA SureFire Ultra pSTAT5 (Tyr694/699) kit (PerkinElmer).
# Human T cells from the Tall-1 cell line were cultured in a 37° C., 5% CO2 humidified incubator in RPMI (Life Technologies) supplemented with 15% Heat Inactivated Fetal Bovine Serum (FBS, Life Technologies), 2 mM Glutamax (Life Technologies), 25 mM HEPES (Life Technologies) and 1× Pen/Strep (Life Technologies). Compounds were serially diluted in DMSO and dispensed acoustically to empty wells. Assay media (phenol red-free DMEM (Life Technologies) supplemented with 10% FBS (ATCC)) was dispensed (4 μL/well) and plates shaken at 900 rpm for 10 mins. Cells were seeded at 45,000 cells/well in assay media (4 μL/well), and incubated at 37° C., 5% CO2 for 1 hour, followed by the addition of IL-2 (R&D Systems; final concentration 300 ng/mL) in pre-warmed assay media (4 μL) for 30 minutes. After cytokine stimulation, cells were lysed with 6 ul of 3× AlphaLisa Lysis Buffer (PerkinElmer) containing 1× PhosStop and Complete tablets (Roche). The lysate was shaken at 900 rpm for 10 minutes at room temperature (RT). Phosphorylated STAT5 was measured via the pSTAT5 AlphaLisa kit (PerkinElmer). Freshly prepared acceptor bead mixture was dispensed onto lysate (5 μL) under green filtered <100 lux light. Plates were shaken at 900 rpm for 2 mins, briefly spun down, and incubated for 2 hrs at RT in the dark. Donor beads were dispensed (5 μL) under green filtered <100 lux light. Plates were shaken at 900 rpm for 2 minutes, briefly spun down, and incubated overnight at RT in the dark. Luminescence was measured with excitation at 689 nm and emission at 570 nm using an EnVision plate reader (PerkinElmer) under green filtered <100 lux light.
# To determine the inhibitory potency of test compounds in response to IL-2, the average emission intensity of beads bound to pSTAT5 was measured in a human T cell line. IC50 values were determined from analysis of the inhibition curves of signal intensity versus compound concentration. Data are expressed as pIC50 (negative decadic logarithm IC50) values (mean±standard deviation).
# Tyk2 = Tyk2 (Homo sapiens (Human), UniProt P29597); test: Biochemical JAK kinase assay (LanthaScreen), Tyk2
# Experimental: as §1, with “equation.” for “equation. Test compounds having a lower Ki value or higher pKi value in the four JAK assays show greater inhibition of JAK activity.”
# JAK1 = JAK1 (Homo sapiens (Human), UniProt P23458); test: Biochemical JAK kinase assay (LanthaScreen), JAK1
# Experimental: as §1, with “equation.” for “equation. Test compounds having a lower Ki value or higher pKi value in the four JAK assays show greater inhibition of JAK activity.”
# Tyk2, sequence (P29597 whole entry): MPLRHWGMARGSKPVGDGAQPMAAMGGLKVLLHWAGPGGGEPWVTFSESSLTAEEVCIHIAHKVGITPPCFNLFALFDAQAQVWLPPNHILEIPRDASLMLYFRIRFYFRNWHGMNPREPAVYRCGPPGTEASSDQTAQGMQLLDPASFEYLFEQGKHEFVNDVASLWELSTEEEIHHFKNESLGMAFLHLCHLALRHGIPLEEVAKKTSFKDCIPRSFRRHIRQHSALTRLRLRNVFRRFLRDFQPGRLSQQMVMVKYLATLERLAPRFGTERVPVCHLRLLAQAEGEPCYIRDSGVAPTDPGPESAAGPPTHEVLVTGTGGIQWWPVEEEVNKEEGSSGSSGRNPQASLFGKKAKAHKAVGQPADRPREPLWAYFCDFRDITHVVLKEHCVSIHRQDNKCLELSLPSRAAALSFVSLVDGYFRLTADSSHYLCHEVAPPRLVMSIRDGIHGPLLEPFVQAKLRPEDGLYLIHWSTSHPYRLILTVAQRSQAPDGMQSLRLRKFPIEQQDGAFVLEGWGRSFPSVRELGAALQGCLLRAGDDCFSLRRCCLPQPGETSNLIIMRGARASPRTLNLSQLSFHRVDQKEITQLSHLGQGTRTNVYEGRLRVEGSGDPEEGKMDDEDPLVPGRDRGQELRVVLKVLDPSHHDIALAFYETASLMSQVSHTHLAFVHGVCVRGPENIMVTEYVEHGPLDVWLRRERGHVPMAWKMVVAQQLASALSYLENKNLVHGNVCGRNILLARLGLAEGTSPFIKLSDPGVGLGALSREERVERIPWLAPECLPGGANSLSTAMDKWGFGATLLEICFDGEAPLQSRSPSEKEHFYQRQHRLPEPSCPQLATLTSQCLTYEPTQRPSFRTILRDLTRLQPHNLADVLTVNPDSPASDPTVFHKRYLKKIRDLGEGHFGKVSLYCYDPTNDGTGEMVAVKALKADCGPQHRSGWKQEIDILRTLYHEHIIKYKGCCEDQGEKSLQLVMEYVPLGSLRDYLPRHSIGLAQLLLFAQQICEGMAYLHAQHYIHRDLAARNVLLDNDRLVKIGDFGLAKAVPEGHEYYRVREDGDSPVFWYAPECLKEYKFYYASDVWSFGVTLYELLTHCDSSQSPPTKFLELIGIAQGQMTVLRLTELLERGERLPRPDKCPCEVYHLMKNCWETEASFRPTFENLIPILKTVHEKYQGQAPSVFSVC
# JAK3, sequence (P52333 whole entry): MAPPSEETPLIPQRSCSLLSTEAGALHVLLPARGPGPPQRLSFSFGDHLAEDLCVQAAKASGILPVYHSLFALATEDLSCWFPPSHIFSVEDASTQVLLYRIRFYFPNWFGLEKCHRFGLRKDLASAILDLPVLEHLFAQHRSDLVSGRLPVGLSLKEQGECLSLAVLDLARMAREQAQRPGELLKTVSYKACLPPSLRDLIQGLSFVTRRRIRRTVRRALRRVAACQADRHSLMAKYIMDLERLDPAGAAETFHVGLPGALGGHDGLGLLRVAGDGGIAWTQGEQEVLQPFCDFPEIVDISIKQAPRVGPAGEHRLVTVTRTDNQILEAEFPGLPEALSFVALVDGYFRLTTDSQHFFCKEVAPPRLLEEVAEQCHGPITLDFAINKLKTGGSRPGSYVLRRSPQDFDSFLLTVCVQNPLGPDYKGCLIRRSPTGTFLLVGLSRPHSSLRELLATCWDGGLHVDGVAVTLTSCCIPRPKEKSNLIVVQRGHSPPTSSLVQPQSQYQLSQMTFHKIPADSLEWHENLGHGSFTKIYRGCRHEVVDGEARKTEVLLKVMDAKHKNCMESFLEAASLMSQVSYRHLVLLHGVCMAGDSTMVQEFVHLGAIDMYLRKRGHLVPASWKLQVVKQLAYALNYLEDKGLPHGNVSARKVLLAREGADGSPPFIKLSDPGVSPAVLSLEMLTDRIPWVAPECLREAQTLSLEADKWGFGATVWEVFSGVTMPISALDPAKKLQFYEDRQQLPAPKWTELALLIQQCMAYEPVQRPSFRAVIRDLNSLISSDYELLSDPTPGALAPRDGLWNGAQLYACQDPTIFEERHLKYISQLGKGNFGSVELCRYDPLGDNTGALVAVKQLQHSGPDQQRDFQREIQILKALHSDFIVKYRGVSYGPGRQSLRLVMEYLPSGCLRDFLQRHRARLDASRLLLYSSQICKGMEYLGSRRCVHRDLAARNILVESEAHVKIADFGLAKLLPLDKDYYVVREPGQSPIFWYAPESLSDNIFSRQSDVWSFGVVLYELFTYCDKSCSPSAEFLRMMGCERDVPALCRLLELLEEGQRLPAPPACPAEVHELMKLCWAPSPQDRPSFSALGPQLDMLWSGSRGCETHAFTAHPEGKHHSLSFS
# JAK2, sequence (O60674 whole entry): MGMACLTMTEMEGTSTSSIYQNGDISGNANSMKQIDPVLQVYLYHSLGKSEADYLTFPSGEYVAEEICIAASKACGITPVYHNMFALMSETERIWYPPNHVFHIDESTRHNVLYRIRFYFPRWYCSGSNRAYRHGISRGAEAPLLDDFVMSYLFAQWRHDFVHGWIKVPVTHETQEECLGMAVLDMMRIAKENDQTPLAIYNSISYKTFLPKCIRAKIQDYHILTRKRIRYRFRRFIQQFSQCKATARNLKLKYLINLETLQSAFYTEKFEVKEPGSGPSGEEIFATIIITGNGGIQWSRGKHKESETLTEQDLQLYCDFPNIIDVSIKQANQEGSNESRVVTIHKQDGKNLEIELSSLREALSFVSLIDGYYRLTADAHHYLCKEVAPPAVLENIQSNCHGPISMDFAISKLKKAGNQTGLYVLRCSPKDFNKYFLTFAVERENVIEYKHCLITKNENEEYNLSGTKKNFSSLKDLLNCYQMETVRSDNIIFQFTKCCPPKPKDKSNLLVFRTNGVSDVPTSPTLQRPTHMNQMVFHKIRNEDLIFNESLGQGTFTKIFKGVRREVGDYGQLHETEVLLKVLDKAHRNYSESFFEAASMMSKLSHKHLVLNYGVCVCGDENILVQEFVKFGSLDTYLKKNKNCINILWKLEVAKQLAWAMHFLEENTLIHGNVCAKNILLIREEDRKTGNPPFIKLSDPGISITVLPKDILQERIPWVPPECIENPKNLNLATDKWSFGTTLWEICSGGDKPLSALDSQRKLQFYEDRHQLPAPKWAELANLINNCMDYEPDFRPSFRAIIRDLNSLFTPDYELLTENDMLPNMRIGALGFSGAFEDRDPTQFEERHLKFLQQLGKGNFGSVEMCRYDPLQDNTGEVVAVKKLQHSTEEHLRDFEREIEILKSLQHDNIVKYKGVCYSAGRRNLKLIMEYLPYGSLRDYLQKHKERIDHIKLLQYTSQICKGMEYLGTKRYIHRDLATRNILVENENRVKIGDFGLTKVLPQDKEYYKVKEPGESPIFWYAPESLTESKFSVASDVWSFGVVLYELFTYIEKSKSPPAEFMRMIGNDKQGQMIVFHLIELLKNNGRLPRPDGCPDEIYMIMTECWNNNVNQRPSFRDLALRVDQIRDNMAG
# JAK1, sequence (P23458 whole entry): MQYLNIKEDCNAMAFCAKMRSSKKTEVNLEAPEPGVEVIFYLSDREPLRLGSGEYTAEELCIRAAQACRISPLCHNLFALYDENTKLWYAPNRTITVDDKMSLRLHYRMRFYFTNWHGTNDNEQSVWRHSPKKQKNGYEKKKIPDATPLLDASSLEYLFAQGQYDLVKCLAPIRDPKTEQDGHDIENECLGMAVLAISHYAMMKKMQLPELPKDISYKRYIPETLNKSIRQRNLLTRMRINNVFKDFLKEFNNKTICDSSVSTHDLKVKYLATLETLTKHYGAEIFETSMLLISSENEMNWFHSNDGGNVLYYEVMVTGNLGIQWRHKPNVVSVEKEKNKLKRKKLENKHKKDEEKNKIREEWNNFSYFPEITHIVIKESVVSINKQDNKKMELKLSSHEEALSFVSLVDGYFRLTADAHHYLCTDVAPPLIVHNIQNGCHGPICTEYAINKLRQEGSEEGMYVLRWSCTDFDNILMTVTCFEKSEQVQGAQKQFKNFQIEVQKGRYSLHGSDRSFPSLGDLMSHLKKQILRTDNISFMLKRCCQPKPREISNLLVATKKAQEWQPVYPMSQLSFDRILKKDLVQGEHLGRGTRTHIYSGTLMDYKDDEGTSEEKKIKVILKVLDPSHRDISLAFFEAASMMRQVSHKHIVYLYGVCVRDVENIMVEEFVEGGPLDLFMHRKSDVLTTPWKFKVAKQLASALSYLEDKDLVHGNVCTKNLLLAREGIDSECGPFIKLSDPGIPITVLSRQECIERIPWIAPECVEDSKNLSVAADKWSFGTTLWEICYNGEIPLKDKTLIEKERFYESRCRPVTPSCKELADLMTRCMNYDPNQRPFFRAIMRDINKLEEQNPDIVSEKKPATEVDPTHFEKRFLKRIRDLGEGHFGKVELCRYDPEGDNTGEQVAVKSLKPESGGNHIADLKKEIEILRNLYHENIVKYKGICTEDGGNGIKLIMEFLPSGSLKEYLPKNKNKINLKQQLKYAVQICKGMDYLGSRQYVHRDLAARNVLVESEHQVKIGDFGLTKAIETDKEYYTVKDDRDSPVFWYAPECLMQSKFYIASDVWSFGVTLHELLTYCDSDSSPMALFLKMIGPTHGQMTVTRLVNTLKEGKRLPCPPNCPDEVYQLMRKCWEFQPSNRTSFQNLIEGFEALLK
structure (smiles),measurement,setting,value
"CCc1cc(O)c(F)cc1-c1ccc2c(-c3nc4c([nH]3)CN(CC)[C@H](C(=O)N3CC(N(C)C)C3)C4)n[nH]c2c1 [Compound C-2, (S)-(3-(dimethylamino)azetidin-1-yl)(5-ethyl-2-(6-(2-ethyl-5-fluoro-4-hydroxyphenyl)-1H-indazol-3-yl)-4,5,6,7-tetrahydro-3H-imidazo[4,5-c]pyridin-6-yl)methanone]",Compound Remaining at 60 min (%),Lung S9 metabolism,6%
same,Sulfate Appearance,Lung S9 metabolism,Yes
same,microsomal CLint at 1 µM,Lung S9 metabolism,46.7 µL/min/mg
same,JAK2 pKi,JAK2,10.9
same,JAK3 pKi,JAK3,9.5
same,IC50,[1],2 nM
same,Tyk2 pKi,Tyk2,9.4
"CCCN1Cc2[nH]c(-c3n[nH]c4cc(-c5cc(F)c(O)cc5CC)ccc34)nc2C[C@H]1C(=O)N1CC(N(C)C)C1 [Compound C-5, (S)-(3-(dimethylamino)azetidin-1-yl)(2-(6-(2-ethyl-5-fluoro-4-hydroxyphenyl)-1H-indazol-3-yl)-5-propyl-4,5,6,7-tetrahydro-3H-imidazo[4,5-c]pyridin-6-yl)methanone]",Compound Remaining at 60 min (%),Lung S9 metabolism,5%
same,Sulfate Appearance,Lung S9 metabolism,Yes
same,microsomal CLint at 1 µM,Lung S9 metabolism,50.5 µL/min/mg
same,JAK1 pKi,JAK1,10.1
same,JAK2 pKi,JAK2,10.8
same,JAK3 pKi,JAK3,10.0
same,IC50,[1],2 nM
same,Tyk2 pKi,Tyk2,9.4

# Source: US10947229B2, “Dimethyl amino azetidine amides as JAK inhibitors” (THERAVANCE BIOPHARMA R&D IP, LLC, priority 2018, dated 2021)
